Source: PMC10305617, “Sesquiterpene Coumarin Ethers with Selective Cytotoxic Activities from the Roots of Ferula huber-morathii Peşmen (Apiaceae) and Unequivocal Determination of the Absolute Stereochemistry of Samarcandin” (Pharmaceuticals, 2023)
Like-named read-outs stand apart in the source and are kept apart here.

Legend:
[1] = test system: MCF-7; assay: MTS cell viability (cytotoxic activity) assay, MCF-7; format: cell-based, Human; details: MCF-7, MTS, 72 h; root extracts
[2] = test system: caspase-9; assay: Caspase-9 colorimetric activity assay in COLO 205 cells; format: cell-based, Human; details: COLO 205, 24 h, highest concentration (131.58 µM)
Procedure: (§1) The caspase-3, -8, and -9 activities were detected by following the protocol of the caspase-3, -8, -9 colorimetric assay kits (Biovision, K106, K113, K119, Mountain View, CA, USA). The cells treated with mogoltadone (5) for 24 h were harvested and lysed with a RIPA (50 mM Tris-HCl, pH 8.0, 150 mM NaCl, 1% Nonidet P-40, 0.5% sodium deoxycholate and 0.1% SDS) cell lysis buffer. The lysed cells were centrifuged at 22,000 g for 30 min and the supernatant was collected in a tube. The samples (200 µg protein) were incubated with caspase substrates (final concentration, 200 µM) at 37° C for 2 h and read on a microplate reader at 405 nm. The fold-increase in enzyme activity was detected by comparison with the untreated control.

[3] = test system: COLO 205; assay: MTS cell viability (cytotoxic activity) assay, COLO 205; format: cell-based, Human; details: COLO 205, MTS, 72 h, mean ± SD, at least three experiments
From the text: (§2) Human colorectal cancer (COLO 205, CCL-222), breast cancer (MCF-7, HTB-22), chronic myelogenous leukemia (K-562, CCL-243), and umbilical vein/vascular endothelium (HUVEC, CRL-1730) cell lines were obtained from the American Type Culture Collection. The COLO 205, MCF-7, K-562, and HUVEC cell lines were maintained in Roswell Park Memorial Institute ([…], Wisent, Montreal, QC, CANADA), Eagle′s Minimum Essential Medium (EMEM, Wisent, Montreal, QC, CANADA), Iscove’s Modified Dulbecco’s Medium (IMDM, Wisent, Montreal, QC, CANADA), and Dulbecco′s Modified Eagle Medium (DMEM, Wisent, Montreal, QC, CANADA) supplemented with 10% fetal bovine serum (Capricorn, Ebsdorfergrund, Germany), 100 U/mL penicillin, and 100 µg/mL streptomycin (Wisent, Montreal, QC, CANADA), respectively. All of the cell lines were cultured at 37 °C in a humidified atmosphere containing 5% CO2.
(§3) A 3-[4,5-dimethylthiazol-2-yl]-5-[3-carboxymethoxyphenyl]-2-[4-sulfophenyl]-2H-tetrazolium, inner salt (MTS) cell viability assay was performed to evaluate the cytotoxic activities of the sesquiterpene coumarin ethers isolated from Ferula huber-morathii. HUVEC (1 × 10^4), COLO 205 (3 × 10^4), K-562 (3 × 10^4), and MCF7 (5 × 10^4) were plated in 96-well plates. Then, 24 h later, the tested compounds were dissolved in DMSO, and the cells were exposed to the different concentrations (131.58–1.028 µM) of the compounds for 72 h. Cisplatin and doxorubicin were used as a positive control. Next, an MTS/phenazine methosulfate (PMS) (Promega, Madison, WI, USA and Sigma, St. Louis, MO, USA respectively) mixture was added to each well and incubated for 1–4 h at 37 °C. The absorbance was read on a microplate reader (Biotek, Winooski, VT, USA) at 490 nm. The cytotoxic activities of the compounds were expressed as an IC50 value. The % inhibition of cell proliferation was calculated using the formula: % Inhibition = [1-(A490test/A490cont)] × 100, where A490test = absorbance of the test sample and A490cont = absorbance of the control sample [88]. The values of the 50% inhibition of the cell proliferation (IC50) were calculated by locating the x-axis values corresponding to one-half of the absorbance values of the sample.

[4] = test system: HUVEC; assay: MTS cell viability (cytotoxic activity) assay, non-cancerous HUVEC; format: cell-based, Human; details: 72 h, mean ± SD, at least three experiments
From the text: as §2, §3

[5] = test system: caspase-3; assay: Caspase-3 colorimetric activity assay in COLO 205 cells; format: cell-based, Human; details: COLO 205, 24 h, highest concentration (131.58 µM)
Procedure: as §1

[6] = test system: MCF-7; assay: MTS cell viability (cytotoxic activity) assay, MCF-7; format: cell-based, Human; details: for IC50: MCF-7, MTS, 72 h, mean ± SD, at least three experiments
From the text: as §2, §3

[7] = test system: K-562; assay: MTS cell viability (cytotoxic activity) assay, K-562; format: cell-based, Human; details: for IC50: K-562, MTS, 72 h, mean ± SD, at least three experiments
From the text: as §2, §3

[8] = test system: K-562; assay: as above; format: cell-based, Human; details: K-562, MTS, 72 h; root extracts
[9] = test system: caspase-8; assay: Caspase-8 colorimetric activity assay in COLO 205 cells; format: cell-based, Human; details: COLO 205, 24 h, highest concentration (131.58 µM)
Procedure: as §1

[10] = test system: ovarian (A2780); details: cited from earlier work
[11] = test system: cervical (HeLa); details: cited from earlier work
[12] = test system: bladder cancer cells (5637); details: cited from earlier work
[13] = test system: COLO 205, K-562, MCF-7 and HUVEC cell lines; assay: MTS cytotoxicity, overall verbal grading over the cell line panel; format: cell-based, Human; details: authors' verbal summary over COLO 205, K-562, MCF-7, HUVEC
From the text: as §2, §3

[14] = test system: lung (A549); details: cited from earlier work
[15] = test system: colon (HCT116); details: cited from earlier work
[16] = test system: chronic myelogenous leukemia (K562); details: cited from earlier work
[17] = test system: stomach (AGS); parameters: method as in PMID 25843566, PMID 20961138, PMID 20628935, PMID 22351980, PMID 25818230; details: cited from earlier work
[18] = test system: procaspase-3; assay: Western blot, procaspase-3 protein level in COLO 205; format: cell-based, Human; details: COLO 205, 24 h, significant at 131.58 µM
Procedure: (§4) To evaluate the effect of mogoltadone (5) on the caspase-3, Bcl-XL and β-catenin protein levels, the COLO 205 cell line was treated with mogoltadone (5) and incubated for 24 h. At the end of the incubation period, the treated cells were harvested. After that, the harvested cells were washed with cold phosphate buffered saline and lysed in a RIPA buffer. The samples were centrifuged at 24,000 g for 45 min at 4° C, and the supernatants were used to determine the procaspase-3, Bcl-XL, β-catenin, and β-actin protein levels by western blot analysis. The cellular proteins were separated on sodium dodecyl sulfate-polyacrylamide gels (SDS-PAGE, AnyKD mini protean TGX precast protein gel, Bio-Rad, Hercules, CA, USA, 4569033). The separated proteins were transferred to the polyvinylidene difluoride (PVDF) membrane using the Trans-Blot Turbo transfer system (Bio-Rad). The membrane was then blocked with a 5% non-fat milk blocking buffer and consecutively incubated with rabbit monoclonal Bcl-XL antibody (1:20,000, ab17884, Abcam), rabbit monoclonal caspase-3 antibody (1:3000, ab3235, Abcam, Cambridge, MA, USA), rabbit monoclonal beta-actin antibody (1:10,000, M01263, BOSTER, Beijing, China), and rabbit polyclonal β-catenin antibody (1/5,000, ab264263, Abcam, Cambridge, MA, USA) overnight at 4° C. […]

[19] = test system: MCF-7 breast cancer cell line; details: cited from earlier work
[20] = test system: ovarian carcinoma cells (CH1); parameters: method as in PMID 23701832; details: cited from earlier work
[21] = test system: β-catenin; assay: Western blot, β-catenin protein level in COLO 205; format: cell-based, Human; details: COLO 205, 24 h
Procedure: as §4

[22] = test system: cisplatin-resistant derivatives of the human ovarian (A2780P A2780/RCIS); details: cited from earlier work
[23] = test system: β-catenin; assay: Western blot, β-catenin protein level in HUVEC; format: cell-based, Human
[24] = test system: Bcl-XL; assay: Western blot, Bcl-XL protein level in COLO 205; format: cell-based, Human; details: COLO 205, 24 h
Procedure: as §4

[25] = test system: melanoma (SK-MEL-28); details: cited from earlier work
[26] = test system: caspase-3; assay: Western blot, caspase-3 protein level in HUVEC; format: cell-based, Human
Procedure: as §4

[27] = test system: Bcl-XL; assay: Western blot, Bcl-XL protein level in HUVEC; format: cell-based, Human
[28] = test system: breast (MDA-MB-231); parameters: method as in PMID 23701832, PMID 26503061, PMID 30944714, PMID 27002410, PMID 33676992; details: cited from earlier work
[29] = test system: colorectal (HT29); parameters: method as in PMID 23701832, PMID 26503061, PMID 30944714, PMID 27002410, PMID 33676992; details: read-out: cytotoxic activity HT29; cited from earlier work

N.N.[Cl][Pt][Cl] [Cisplatin, reference compound]
IC50 (µg/mL) MCF-7 [1]: 35.52 ± 0.76 µg/mL
increase in caspase-9 activity compared with the control [2]: 2.07 fold
IC50 [3]: 112 ± 3.11 µM
IC50 [4]: 40.7 ± 1.12 µM
increase in caspase-3 activity compared with the control [5]: 6.73 fold
IC50 [6]: 64.2 ± 5.25 µM
IC50 [7]: 8.1 ± 0.25 µM
IC50 (µg/mL) K-562 [8]: 9.73 ± 0.30 µg/mL
increase in caspase-8 activity compared with the control [9]: 1.8 fold

CC1=CC[C@@H]2C(C)(C)[C@H](O)CC[C@@]2(C)[C@@H]1COc1ccc2ccc(=O)oc2c1 [Feselol (3), feselol]
IC50 ([10]; ref Soltani et al. 67, read-out: cytotoxic activity A2780): 20 µM
cytotoxic activity on HeLa, in words [11]: did not show any cytotoxic activity
IC50 ([11]; ref Soltani et al. 67, read-out: cytotoxic activity HeLa): 35 µM
cytotoxic activity on bladder (TCC, 5637), in words ([12]; bladder (TCC, 5637)): did not show any cytotoxic activity
cytotoxicity in words [13]: moderate or strong cytotoxicity
IC50 ([3]; Homo sapiens): 38.4 ± 0.8 µM
IC50 ([14]; ref Soltani et al. 67, read-out: cytotoxic activity A549): 26 µM
IC50 ([15]; HCT-116, ref Soltani et al. 67, read-out: cytotoxic activity HCT-116): 28 µM
IC50 ([4]; Homo sapiens): 38.8 ± 0.83 µM
cytotoxic activity on K562, in words [16]: did not show any cytotoxic activity
cytotoxic activity on stomach (AGS), in words [17]: did not show any cytotoxic activity
IC50 ([6]; Homo sapiens, MCF7): 36 ± 1.29 µM
IC50 ([7]; Homo sapiens, K562): 72.5 ± 0.74 µM

C=C1CCC2C(C)(C)C(=O)CCC2(C)C1COc1ccc2ccc(=O)oc2c1 (centres unmarked) [Mogoltadone (5), mogoltadone]
effect on procaspase-3 level [18]: decreased
increase in caspase-9 activity compared with the control [2]: 1.97 fold
IC50 ([19]; read-out: cytotoxic effect MCF-7): > 100 µM
cytotoxic effect against CH1, in words ([20]; ovarian carcinoma cell line (CH1)): moderate cytotoxic effects
cytotoxicity in words [13]: moderate or strong cytotoxicity
IC50 ([3]; Homo sapiens): 31.71 ± 0.15 µM
effect on β-catenin levels [21]: decreased
effect of combination with cisplatin on cisplatin cytotoxicity ([22]; A2780/RCIS cells, combination with cisplatin): significantly enhanced the cisplatin cytotoxicity
IC50 ([22]; A2780/RCIS, read-out: cytotoxic effect A2780/RCIS): > 50 µM
cytotoxic activity against A549, in words ([14]; ref Valiahdi et al. 29): did not find any potent cytotoxic activity
effect on β-catenin protein level [23]: did not have a statistically significant effect
effect on Bcl-XL level [24]: suppressed
IC50 ([4]; Homo sapiens): > 200 µM
cytotoxic activity against SK-MEL-28, in words ([25]; ref Valiahdi et al. 29): did not find any potent cytotoxic activity
effect on caspase-3 protein level [26]: did not have a statistically significant effect
increase in caspase-3 activity compared with the control [5]: 4.72 fold
selectivity index MCF-7 ([6]; HUVEC versus MCF-7): > 8.64
IC50 ([6]; Homo sapiens, MCF7): 30.4 ± 0.6 µM
selectivity index K-562 ([7]; HUVEC versus K-562): > 12.46
IC50 ([7]; Homo sapiens, K562): 21.1 ± 0.85 µM
effect on Bcl-XL protein level [27]: did not have a statistically significant effect
increase in caspase-8 activity compared with the control [9]: 2 fold

CC1=CC[C@@H]2C(C)(C)C(=O)CC[C@@]2(C)[C@@H]1COc1ccc2ccc(=O)oc2c1 [Conferone (1), conferone]
IC50 ([10]; read-out: cytotoxic activity A2780): 32 µM
IC50 ([11]; read-out: cytotoxic activity HeLa): 38 µM
cytotoxic activity MDA-MB-231 [28]: 30 µg/mL
IC50 [29]: 20 µM
IC50 ([19]; read-out: cytotoxic activity MCF-7): > 100 µM
cytotoxic effect on bladder cancer cells (5637), in words [12]; 5637: no cytotoxic effect
IC50 ([20]; ovarian carcinoma cells (CH1)): 7.8 µM
cytotoxicity in words ([13]; listed as 1): moderate or strong cytotoxicity
cytotoxicity in words ([13]; listed as conferone (1)): moderate cytotoxic effect
IC50 ([3]; Homo sapiens): 27.6 ± 0.69 µM
IC50 ([22]; A2780P A2780/RCIS, read-out: cytotoxic activity A2780P A2780/RCIS): 25 µM
IC50 ([14]; read-out: cytotoxic activity A549): 38 µM
IC50 ([15]; HCT116, read-out: cytotoxic activity HCT116): 32 µM
IC50 ([4]; Homo sapiens): 46.1 ± 0.99 µM
cytotoxic activity K562 [16]: 86.12 µg/mL
IC50 ([25]; read-out: cytotoxic activity SK-MEL-28): 64 µM
IC50 ([6]; Homo sapiens, MCF7): 34 ± 0.68 µM
IC50 ([7]; Homo sapiens, K562): 55.5 ± 0.94 µM
